# Measured values: patent US8362031B2, “Lonidamine analogues and treatment of polycystic kidney disease” (University of Kansas, priority 2004, dated 2013)
# What was measured:
# [1] = system: PCNA (proliferating cell nuclear antigen); test: Immunostaining of organ culture kidney sections; type: cell-based, mouse; conditions: not shown
# Description: Since GMZ affects Hsp90 client proteins involved in cell proliferation, it was hypothesized that GMZ could also be inhibiting cell proliferation in the metanephric organ cultures. To test this idea, organ culture sections were immunostained with an antibody to PCNA (proliferating cell nuclear antigen), a marker of cell proliferation.
# [2] = system: ID8 cells (ovarian cancer); test: ID8 cell growth in vitro; type: cell-based
# Procedure: When RC-MC-110 is added to a variety of cancer cells: ovarian (ID8), taxol-resistant ovarian (ID8), prostate (LNCaP and PC-3), kidney (293).
Structure (SMILES),PCNA staining [1],"Sensitivity of ID8 cell growth, compared with lonidamine [2]"
"O=C(O)CCc1nn(Cc2ccc(Cl)cc2Cl)c2cc(C(F)(F)F)ccc12 [GMZ, 3-[1-(2,4-dichlorobenzyl)-6-trifluoromethyl-1H-indazol-3-yl]-propionic acid]","overall less staining, and fewer tubule cells staining for PCNA",–
"O=C(O)/C=C/c1nn(Cc2ccc(Cl)cc2Cl)c2cc(C(F)(F)F)ccc12 [RC-MC-110, trans 3-[1-(2,4-dichlorobenzyl)-6-trifluoromethyl-1H-indazol-3-yl]-acrylic acid]",–,more sensitive to RC-MC-110 than lonidamine
